From patent US11613522B2, “Herbicidally active 3-phenylisoxazoline-5-carboxamides of tetrahydro- and dihydrofurancarboxamides” (BAYER AKTIENGESELLSCHAFT, priority 2017, dated 2023)

Tests used:
Assay type in all cases: in vivo
Alopecurus myosuroides [1] = test: Pre-emergence herbicidal activity against ALOMY; details: Alopecurus myosuroides, 504 h, dosage 80 g/ha, scored visually after about 3 weeks vs untreated controls
Source text: (§1) 1. Pre-emergence herbicidal action against harmful plants and crop plant compatibility Seeds of monocotyledonous and dicotyledonous weed plants and crop plants are placed in plastic or wood fiber pots and covered with soil. The compounds of the invention, formulated in the form of wettable powders (WP) or as emulsion concentrates (EC), are then applied onto the surface of the covering soil as aqueous suspension or emulsion with addition of 0.5% additive at a water application rate of 600 l/ha (converted). After the treatment, the pots are placed in a greenhouse and kept under good growth conditions for the trial plants. After about 3 weeks, the effect of the preparations is scored visually in comparison with untreated controls as percentages. For example, 100% activity=the plants have died, 0% activity=like control plants. [table]

Avena fatua [2] = test: Pre-emergence herbicidal activity against AVEFA; details: Avena fatua, 504 h, dosage 80 g/ha, scored visually after about 3 weeks vs untreated controls, read-out: Pre-emergence herbicidal activity in % against AVEVA (AVEFA)
Source text: as §1

Echinochloa crus-galli [3] = test: Pre-emergence herbicidal activity against ECHCG; details: Echinochloa crus-galli, 504 h, dosage 80 g/ha, scored visually after about 3 weeks vs untreated controls
Source text: as §1

Lolium rigidum [4] = test: Pre-emergence herbicidal activity against LOLRI; details: Lolium rigidum, 504 h, dosage 80 g/ha, scored visually after about 3 weeks vs untreated controls
Source text: as §1

Setaria viridis [5] = test: Pre-emergence herbicidal activity against SETVI; details: Setaria viridis, 504 h, dosage 80 g/ha, scored visually after about 3 weeks vs untreated controls
Source text: as §1

Amaranthus retroflexus [6] = test: Pre-emergence herbicidal activity against AMARE; details: Amaranthus retroflexus, 504 h, dosage 80 g/ha, scored visually after about 3 weeks vs untreated controls
Source text: as §1

Polygonum convolvulus [7] = test: Pre-emergence herbicidal activity against POLCO; details: Fallopia convolvulus, 504 h, dosage 80 g/ha, scored visually after about 3 weeks vs untreated controls
Source text: as §1

Stellaria media [8] = test: Pre-emergence herbicidal activity against STEME; details: Stellaria media, 504 h, dosage 80 g/ha, scored visually after about 3 weeks vs untreated controls
Source text: as §1

Hordeum murinum [9] = test: Pre-emergence herbicidal activity against HORMU; details: Hordeum murinum, 504 h, dosage 80 g/ha
Source text: as §1

Alopecurus myosuroides [10] = test: Post-emergence herbicidal activity against ALOMY; details: Alopecurus myosuroides, 504 h, dosage 320 g/ha, rated visually after about 3 weeks
Protocol: (§2) [table] Seeds of monocotyledonous and dicotyledonous weeds and crop plants are placed in sandy loam in plastic or wood-fiber pots, covered with soil and cultivated in a greenhouse under controlled growth conditions. 2 to 3 weeks after sowing, the test plants are treated at the one-leaf stage. The compounds of the invention, formulated in the form of wettable powders (WP) or as emulsion concentrates (EC), are then sprayed onto the green parts of the plants as aqueous suspension or emulsion with addition of 0.5% additive at a water application rate of 600 l/ha (converted). After the test plants had been kept in the greenhouse under optimum growth conditions for about 3 weeks, the activity of the preparations is rated visually in comparison to untreated controls. For example, 100% activity=the plants have died, 0% activity=like control plants.

Avena fatua [11] = test: Post-emergence herbicidal activity against AVEFA; details: Avena fatua, 504 h, dosage 320 g/ha, rated visually after about 3 weeks
Protocol: as §2

Echinochloa crus-galli [12] = test: Post-emergence herbicidal activity against ECHCG; details: Echinochloa crus-galli, 504 h, dosage 320 g/ha, rated visually after about 3 weeks
Protocol: as §2

Lolium rigidum [13] = test: Post-emergence herbicidal activity against LOLRI; details: Lolium rigidum, 504 h, dosage 320 g/ha, rated visually after about 3 weeks
Protocol: as §2

Setaria viridis [14] = test: Post-emergence herbicidal activity against SETVI; details: Setaria viridis, 504 h, dosage 320 g/ha, rated visually after about 3 weeks
Protocol: as §2

Amaranthus retroflexus [15] = test: Post-emergence herbicidal activity against AMARE; details: Amaranthus retroflexus, 504 h, dosage 320 g/ha, rated visually after about 3 weeks
Protocol: as §2

Pharbitis purpurea = test: Post-emergence herbicidal activity against PHBPU; details: Ipomoea purpurea, 504 h, dosage 320 g/ha, rated visually after about 3 weeks
Protocol: as §2

Stellaria media [16] = test: Post-emergence herbicidal activity against STEME; details: Stellaria media, 504 h, dosage 320 g/ha, rated visually after about 3 weeks
Protocol: as §2

Veronica persica [17] = test: Post-emergence herbicidal activity against VERPE; details: Veronica persica, 504 h, dosage 320 g/ha, rated visually after about 3 weeks
Protocol: as §2

Hordeum murinum [18] = test: Post-emergence herbicidal activity against HORMU; details: Hordeum murinum, 504 h, dosage 320 g/ha, rated visually after about 3 weeks
Protocol: as §2

[19] = Pre-emergence herbicidal action against harmful plants (summary of the tables); details: 504 h, application rate of 0.08 kg of active substance or less per hectare, read-out: herbicidal action, pre-emergence treatment (very good activity)
Source text: as §1, with “plants.” for “plants. [table]”
As shown by the results, compounds according to the invention such as, for example, the compounds No. I-02 and other compounds from the tables (I-05, I-10, I-11, I-12, I-13, I-14, I-15, I-16, I-17, I-18, I-19, I-20, I-21, I-22, I-23, I-24, I-25, I-26, I-27, I-28, I-29) have, when used for pre-emergence treatment, very good activity (80% to 100% herbicidal action) against harmful plants such as Abutilon theophrasti, Alopecurus myosuroides, Amaranthus retroflexus, Avena fatua, Cyperus esculentus, Echinochloa crus-galli, Hordeum murinum, Lolium rigidum, Pharbitis purpurea, Polygonum convolvulus, Setaria viridis, Stellaria media, Veronica persica and Viola tricolor at an application rate of 0.08 kg of active substance or less per hectare.

Viola tricolor [20] = test: Pre-emergence herbicidal activity against VIOTR; details: Viola tricolor, 504 h, dosage 80 g/ha, scored visually after about 3 weeks vs untreated controls
Source text: as §1

Abutilon theophrasti = test: Post-emergence herbicidal activity against ABUTH; details: Abutilon theophrasti, 504 h, dosage 320 g/ha, rated visually after about 3 weeks
Protocol: as §2

Polygonum convolvulus [21] = test: Post-emergence herbicidal activity against POLCO; details: Fallopia convolvulus, 504 h, dosage 320 g/ha, rated visually after about 3 weeks
Protocol: as §2

Viola tricolor [22] = test: Post-emergence herbicidal activity against VIOTR; details: Viola tricolor, 504 h, dosage 320 g/ha, rated visually after about 3 weeks
Protocol: as §2

Veronica persica [23] = test: Pre-emergence herbicidal activity against VERPE; details: Veronica persica, 504 h, dosage 80 g/ha
Source text: as §1

Structure (SMILES) | pest or weed control at 80 g/ha (Alopecurus myosuroides [1]) [%] | pest or weed control at 80 g/ha (Avena fatua [2]) [%] | pest or weed control at 80 g/ha (Echinochloa crus-galli [3]) [%] | pest or weed control at 80 g/ha (Lolium rigidum [4]) [%] | pest or weed control at 80 g/ha (Setaria viridis [5]) [%] | pest or weed control at 80 g/ha (Amaranthus retroflexus [6]) [%] | pest or weed control at 80 g/ha (Polygonum convolvulus [7]) [%] | pest or weed control at 80 g/ha (Stellaria media [8]) [%] | pest or weed control at 80 g/ha (Hordeum murinum [9]) [%] | pest or weed control at 320 g/ha (Alopecurus myosuroides [10]) [%] | pest or weed control at 320 g/ha (Avena fatua [11]) [%] | pest or weed control at 320 g/ha (Echinochloa crus-galli [12]) [%] | pest or weed control at 320 g/ha (Lolium rigidum [13]) [%] | pest or weed control at 320 g/ha (Setaria viridis [14]) [%] | pest or weed control at 320 g/ha (Amaranthus retroflexus [15]) [%] | pest or weed control at 320 g/ha (Pharbitis purpurea) [%] | pest or weed control at 320 g/ha (Stellaria media [16]) [%] | pest or weed control at 320 g/ha (Veronica persica [17]) [%] | pest or weed control at 320 g/ha (Hordeum murinum [18]) [%] | pest or weed control at 80 g/ha [19] [%] | further results
CONC(=O)[C@@H]1C[C@H](NC(=O)C2(C)CC(c3cccc(F)c3)=NO2)CO1 (relative stereo) [Example I-10, 3-(3-fluorophenyl)-N-[cis-5-(methoxycarbamoyl)tetrahydrofuran-3-yl]-5-methyl-4H-isoxazole-5-carboxamide] | 100 | 80 | 80 | 100 | 90 | 90 | 90 | 90 | 100 | 100 | 90 | 90 | 90 | 90 | 80 | 90 | 80 | 80 | 90 | 80 to 100 | –
C=C[C@]1(C(=O)N[C@H]2CO[C@@H](C(=O)NNC(=O)OC(C)(C)C)C2)CC(c2cc(F)cc(F)c2)=NO1 (mixture of isomers) [Example I-19, tert-butyl N-[[cis-4-[[(5S)-3-(3,5-difluorophenyl)-5-vinyl-4H-isoxazole-5-carbonyl]amino]tetrahydrofuran-2-carbonyl]amino]carbamate] | – | 90 | 80 | 100 | 90 | – | 90 | 90 | 100 | 90 | 90 | 90 | 90 | 90 | 90 | 90 | 90 | 80 | 90 | 80 to 100 | pest or weed control at 80 g/ha (Viola tricolor [20]): 80%; pest or weed control at 320 g/ha (Abutilon theophrasti): 90%; pest or weed control at 320 g/ha (Polygonum convolvulus [21]): 90%; pest or weed control at 320 g/ha (Viola tricolor [22]): 90%
C=CC1(C(=O)N[C@@H]2CO[C@H](C(=O)NC)C2)CC(c2cc(F)cc(F)c2)=NO1 (relative stereo) [Example I-02, 3-(3,5-difluorophenyl)-N-[cis-5-(methylcarbamoyl)tetrahydrofuran-3-yl]-5-vinyl-4H-isoxazole-5-carboxamide] | 90 | 100 | 100 | – | – | 100 | – | 100 | – | 100 | 90 | 80 | – | 90 | – | 90 | 90 | 80 | – | 80 to 100 | pest or weed control at 80 g/ha (Veronica persica [23]): 90%; pest or weed control at 320 g/ha (Abutilon theophrasti): 80%; pest or weed control at 320 g/ha (Viola tricolor [22]): 80%
